Results published in patent US8470810B2, “Heterocyclic compounds suitable for treating disorders that respond to modulation of the dopamine D3 receptor” (Abbott GmbH & Co. KG, priority 2004, dated 2013).
pKi: −log10 of the molar value.

Assays:
[1] = molecular target: T1, human dopamine D3 receptors (Homo sapiens, UniProt P35462); test: Dopamine D3 receptor binding, displacement of [125I]-iodosulpride; conditions: for pKi: membranes of HEK-293 cells stably expressing human D3, 0.1 nM [125I]-iodosulpride, 25° C., 60 minutes; for Ki(D2)*/Ki(D3)*: selectivity ratio of the receptor binding constants D2 over D3
T1 construct: expressed in transfected cells
T1 sequence (P35462 whole entry): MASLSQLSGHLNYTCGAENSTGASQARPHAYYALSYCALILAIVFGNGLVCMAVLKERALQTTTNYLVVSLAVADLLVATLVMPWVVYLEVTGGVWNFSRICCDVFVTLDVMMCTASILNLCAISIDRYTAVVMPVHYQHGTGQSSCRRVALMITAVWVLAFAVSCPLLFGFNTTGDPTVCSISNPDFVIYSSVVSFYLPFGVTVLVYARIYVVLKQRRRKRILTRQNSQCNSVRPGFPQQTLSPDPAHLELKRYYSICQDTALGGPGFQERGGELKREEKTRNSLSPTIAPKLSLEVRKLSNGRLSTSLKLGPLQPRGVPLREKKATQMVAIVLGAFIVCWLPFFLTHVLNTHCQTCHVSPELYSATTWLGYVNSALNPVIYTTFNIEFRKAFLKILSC
Procedure: (§1) The substance to be tested was either dissolved in methanol/Chremophor® (BASFAG) or in dimethyl sulfoxide and then diluted with water to the desired concentration.
(§2) Each assay mixture was run in triplicate.
The incubation buffer contained 50 mM tris, 120 mM NaCl, 5 mM KCl, 2 mM CaCl2, 2 mM MgCl2 and 0.1% bovine serum albumin, 10 μM quinolone and 0.1% ascorbic acid (prepared fresh daily). The buffer was adjusted to pH 7.4 with HCl.
(§3) After having been incubated at 25° C. for 60 minutes, the assay mixtures were filtered through a Whatman GF/B glass fiber filter under vacuum using a cell collecting device. The filters were transferred to scintillation viols using a filter transfer system. After 4 ml of Ultima Gold® (Packard) have been added, the samples were shaken for one hour and the radioactivity was then counted in a Beta-Counter (Packard, Tricarb 2000 or 2200CA). The cpm values were converted into dpm using a standard quench series and the program belonging to the instrument.
(§4) The inhibition curves were analyzed by means of iterative nonlinear regression analysis using the Statistical Analysis System (SAS) which is similar to the “LIGAND” program described by Munson and Rodbard.
(§5) The results of the receptro binding studies are expressed as receptor binding constants Ki(D2) and Ki(D3), respectively, as herein before described, and given in table 6.

[2] = molecular target: T2, human dopamine D2L receptors (long isoform) (Homo sapiens, UniProt P14416); test: Dopamine D2L receptor binding, displacement of [125I] iodospiperone; conditions: membranes of HEK-293 cells stably expressing human D2L; 0.01 nM [125I] iodospiperone; 25° C., 60 minutes; read-out: Ki(D2)*
T2 construct: expressed in transfected cells
T2 sequence (P14416 whole entry, canonical isoform): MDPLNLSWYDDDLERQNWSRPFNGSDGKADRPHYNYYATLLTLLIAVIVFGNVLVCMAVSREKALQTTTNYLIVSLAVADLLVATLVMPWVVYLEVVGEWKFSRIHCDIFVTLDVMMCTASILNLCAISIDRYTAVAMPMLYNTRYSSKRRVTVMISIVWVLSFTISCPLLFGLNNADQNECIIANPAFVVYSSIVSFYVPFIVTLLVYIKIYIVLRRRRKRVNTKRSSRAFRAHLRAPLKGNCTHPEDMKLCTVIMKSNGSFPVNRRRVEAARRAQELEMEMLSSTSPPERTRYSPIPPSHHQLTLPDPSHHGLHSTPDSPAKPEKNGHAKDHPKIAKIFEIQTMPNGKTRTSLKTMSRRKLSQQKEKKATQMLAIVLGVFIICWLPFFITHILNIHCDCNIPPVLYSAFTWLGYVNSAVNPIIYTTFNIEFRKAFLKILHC
Procedure: as §1, §2
The incubation buffer contained 50 mM tris, 120 mM NaCl, 5 mM KCl, 2 mM CaCl2, 2 mM MgCl2 and 0.1% bovine serum albumin. The buffer was adjusted to pH 7.4 with HCl.
as §3, §4, §5

pKi [1]	Ki(D2)*/Ki(D3)* [1]	pKi [2]	SMILES
8.24	74	6.37	CCCN1CCC(c2ccc(NS(=O)(=O)c3ccc(C(C)C)cc3)cn2)C1 (single isomer, unassigned; (-)) [Example 131, (−)-N-[6-(1-Propyl-pyrrolidin-3-yl)-pyridin-3-yl]-4-isopropyl-benzene-sulfonamide]
10.05	89	8.12	CCCN1CC[C@@H](c2ccc(NS(=O)(=O)c3ccc(C(C)C)cc3)cc2)C1.Cl [Example 1, 4-Isopropyl-N-[4-((S)-1-propyl-pyrrolidin-3-yl)-phenyl]-benzenesulfonamide hydrochloride]
9.62	9	8.64	CCCN1CC[C@@H](c2ccc(NS(=O)(=O)c3ccc(C(C)(C)CC)cc3)cc2)C1.Cl [Example 2, 4-(1,1-Dimethyl-propyl)-N-[4-((S)-1-propyl-pyrrolidin-3-yl)-phenyl]-benzenesulfonamide hydrochloride]
9.77	91	7.86	C=CCN1CC[C@@H](c2ccc(NS(=O)(=O)c3ccc(C(C)C)cc3)cc2)C1.Cl [Example 3, 4-(Isopropyl)-N-[4-((S)-1-allyl-pyrrolidin-3-yl)-phenyl]-benzenesulfonamide hydrochloride]
8.50	127	6.39	C=CCN1CC[C@H](c2ccc(NS(=O)(=O)c3ccc(C(C)C)cc3)cc2)C1.Cl [Example 4, 4-(Isopropyl)-N-[4-((R)-1-allyl-pyrrolidin-3-yl)-phenyl]-benzenesulfonamide hydrochloride]
8.54	93	6.57	CCCN1CC[C@H](c2ccc(NS(=O)(=O)c3ccc(C(C)C)cc3)cc2)C1.Cl [Example 5, 4-(Isopropyl)-N-[4-((R)-1-propyl-pyrrolidin-3-yl)-phenyl]benzenesulfonamide hydrochloride]
9.35	45	7.70	CCCN1CC[C@@H](c2ccc(NS(=O)(=O)c3ccc(CC)cc3)cc2)C1.Cl [Example 6, 4-Ethyl-N-[4-((S)-1-propyl-pyrrolidin-3-yl)-phenyl]-benzenesulfonamide hydrochloride]
8.46	61	6.67	CCCN1CC[C@@H](c2ccc(NS(=O)(=O)c3ccc(OC(F)(F)F)cc3)cc2)C1.Cl [Example 7, 4-Trifluoromethoxy-N-[4-((S)-1-propyl-pyrrolidin-3-yl)-phenyl]-benzenesulfonamide hydrochloride]
8.39	57	6.63	CCCN1CC[C@@H](c2ccc(NS(=O)(=O)c3ccc(C(F)(F)F)cc3)cc2)C1.Cl [Example 8, 4-Trifluoromethyl-N-[4-((S)-1-propyl-pyrrolidin-3-yl)-phenyl]-benzenesulfonamide hydrochloride]
8.59	49	6.89	CCCN1CC[C@@H](c2ccc(NS(=O)(=O)c3ccc(OC(F)F)cc3)cc2)C1.Cl [Example 9, 4-Difluoromethoxy-N-[4-((S)-1-propyl-pyrrolidin-3-yl)-phenyl]-benzenesulfonamide hydrochloride]
8.72	60	6.95	CCCN1CC[C@@H](c2ccc(NS(=O)(=O)c3ccc(C)cc3)cc2)C1.Cl [Example 10, 4-Methyl-N-[4-((S)-1-propyl-pyrrolidin-3-yl)-phenyl]-benzenesulfonamide hydrochloride]
8.52	43	6.88	CCCN1CC[C@@H](c2ccc(NS(=O)(=O)c3ccc(OC)cc3)cc2)C1 [Example 12, 4-Methoxy-N-[4-((S)-1-propyl-pyrrolidin-3-yl)-phenyl]-benzenesulfonamide]
8.51	54	6.77	CCCN1CC[C@@H](c2ccc(NS(=O)(=O)c3ccc(Cl)cc3)cc2)C1 [Example 13, 4-Chloro-N-[4-((S)-1-propyl-pyrrolidin-3-yl)-phenyl]-benzenesulfonamide]
8.47	37	6.91	CCCN1CC[C@@H](c2ccc(NS(=O)(=O)c3ccc4c(c3)CCO4)cc2)C1 [Example 14, 2,3-Dihydro-benzofuran-5-sulfonic acid [4-((S)-1-propyl-pyrrolidin-3-yl)-phenyl]-amide]
8.72	39	7.13	CCCN1CC[C@@H](c2ccc(NS(=O)(=O)c3ccc(Br)c(F)c3)cc2)C1 [Example 15, 4-Bromo-3-fluoro-N-[4-((S)-1-propyl-pyrrolidin-3-yl)-phenyl]-benzenesulfonamide]
7.90	31	6.41	CCCN1CC[C@@H](c2ccccc2NS(=O)(=O)c2ccc(Br)c(F)c2)C1 [Example 16, 4-Bromo-3-fluoro-N-[2-((S)-1-propyl-pyrrolidin-3-yl)-phenyl]-benzenesulfonamide]
8.51	41	6.90	CCCN1CC[C@@H](c2ccc(NS(=O)(=O)c3ccc(Br)cc3F)cc2)C1 [Example 17, 4-Bromo-2-fluoro-N-[4-((S)-1-propyl-pyrrolidin-3-yl)-phenyl]-benzenesulfonamide]
8.64	39	7.05	CC(C)c1ccc(S(=O)(=O)Nc2ccc([C@@H]3CCNC3)cc2)cc1 [Example 18, 4-Isopropyl-N-[4-((S)-pyrrolidin-3-yl)-phenyl]-benzenesulfonamide]
9.32	26	7.90	C=C(C)c1ccc(S(=O)(=O)Nc2ccc([C@@H]3CCN(CCC)C3)cc2)c(F)c1 [Example 19, 2-Fluoro-4-isopropenyl-N-[4-((S)-1-propyl-pyrrolidin-3-yl)-phenyl]-benzenesulfonamide]
9.52	24	8.14	C=C(C)c1ccc(S(=O)(=O)Nc2ccc([C@@H]3CCN(CCC)C3)cc2)cc1F [Example 20, 3-Fluoro-4-isopropenyl-N-[4-((S)-1-propyl-pyrrolidin-3-yl)-phenyl]-benzenesulfonamide]
9.40	27	7.96	CCCN1CC[C@@H](c2ccc(NS(=O)(=O)c3ccc(C(C)C)cc3F)cc2)C1 [Example 21, 2-Fluoro-4-isopropyl-N-[4-((S)-1-propyl-pyrrolidin-3-yl)-phenyl]-benzenesulfonamide]
8.97	44	7.33	CCCN1CC[C@@H](c2ccc(NS(=O)(=O)c3ccc(OC(C)C)cc3)cc2)C1.Cl [Example 23, 4-Isopropoxy-N-[4-((S)-1-propyl-pyrrolidin-3-yl)-phenyl]-benzenesulfonamide hydrochloride]
8.92	60	7.14	CCCN1CC[C@@H](c2ccc(NS(=O)(=O)c3ccc4c(c3)CCC4)cc2)C1.Cl [Example 24, Indan-5-sulfonic acid [4-((S)-1-propyl-pyrrolidin-3-yl)-phenyl]-amide hydrochloride]
8.80	60	7.02	CCCN1CC[C@@H](c2ccc(NS(=O)(=O)c3ccc(Br)cc3)cc2)C1.Cl [Example 25, 4-Bromo-N-[4-((S)-1-propyl-pyrrolidin-3-yl)-phenyl]-benzenesulfonamide hydrochloride]
7.67	–	–	CCCN1CC(c2ccc(NS(=O)(=O)c3ccc(CCC(F)(F)F)cc3)cc2)C1 [Example 61, N-[4-(1-Propyl-azetidin-3-yl)-phenyl]-4-(3,3,3-trifluoro-propyl)-benzenesulfonamide]
9.12	13	–	CCCN1CCC(c2ccc(NS(=O)(=O)c3ccc(C(C)C)cc3)c(F)c2)C1.Cl (stereo not drawn) [Example 134, N-[2-Fluoro-4-(1-propyl-pyrrolidin-3-yl)-phenyl]-4-isopropyl-benzenesulfonamide, hydrochloride]
9.07	17	–	CC(=O)O.COc1cc(C2CCNC2)ccc1NS(=O)(=O)c1ccc(C(C)C)cc1 (stereo not drawn) [Example 135, 4-Isopropyl-N-(2-methoxy-4-pyrrolidin-3-yl-phenyl)-benzenesulfonamide, acetate]
9.57	6	–	CCCN1CCC(c2ccc(NS(=O)(=O)c3ccc(C(C)C)cc3)c(OC)c2)C1.Cl (stereo not drawn) [Example 136, 4-Isopropyl-N-[2-methoxy-4-(1-propyl-pyrrolidin-3-yl)-phenyl]-benzenesulfonamide, hydrochloride]
9.44	12	–	C=CCN1CCC(c2ccc(NS(=O)(=O)c3ccc(C(C)C)cc3)c(OC)c2)C1.Cl (stereo not drawn) [Example 137, N-[4-(1-Allyl-pyrrolidin-3-yl)-2-methoxy-phenyl]-4-isopropyl-benzenesulfonamide, hydrochloride]
